These are literature values, as cited in patent US10278869B2, “Apparatus for aspirating, irrigating and cleansing wounds” (SMITH & NEPHEW PLC, priority 2002, dated 2019).

The conditions of this series: EP standard, CRS.

gentamycin sulphate: the activity is listed as 616 IU mg^−1.
